The text below walks through data of US20080171783A1, “COMPOSITIONS AND METHODS FOR TREATING HYPERPROLIFERATIVE DISEASE” (Migenix Inc., priority 2006, published 2008).

One experiment deals with T1, Calf polymerase alpha (Bos taurus, UniProt A0AAA9TD94).
T1 construct: purchased Replizyme Ltd (Heslington, York, UK)
T1 sequence (A0AAA9TD94 1-1441): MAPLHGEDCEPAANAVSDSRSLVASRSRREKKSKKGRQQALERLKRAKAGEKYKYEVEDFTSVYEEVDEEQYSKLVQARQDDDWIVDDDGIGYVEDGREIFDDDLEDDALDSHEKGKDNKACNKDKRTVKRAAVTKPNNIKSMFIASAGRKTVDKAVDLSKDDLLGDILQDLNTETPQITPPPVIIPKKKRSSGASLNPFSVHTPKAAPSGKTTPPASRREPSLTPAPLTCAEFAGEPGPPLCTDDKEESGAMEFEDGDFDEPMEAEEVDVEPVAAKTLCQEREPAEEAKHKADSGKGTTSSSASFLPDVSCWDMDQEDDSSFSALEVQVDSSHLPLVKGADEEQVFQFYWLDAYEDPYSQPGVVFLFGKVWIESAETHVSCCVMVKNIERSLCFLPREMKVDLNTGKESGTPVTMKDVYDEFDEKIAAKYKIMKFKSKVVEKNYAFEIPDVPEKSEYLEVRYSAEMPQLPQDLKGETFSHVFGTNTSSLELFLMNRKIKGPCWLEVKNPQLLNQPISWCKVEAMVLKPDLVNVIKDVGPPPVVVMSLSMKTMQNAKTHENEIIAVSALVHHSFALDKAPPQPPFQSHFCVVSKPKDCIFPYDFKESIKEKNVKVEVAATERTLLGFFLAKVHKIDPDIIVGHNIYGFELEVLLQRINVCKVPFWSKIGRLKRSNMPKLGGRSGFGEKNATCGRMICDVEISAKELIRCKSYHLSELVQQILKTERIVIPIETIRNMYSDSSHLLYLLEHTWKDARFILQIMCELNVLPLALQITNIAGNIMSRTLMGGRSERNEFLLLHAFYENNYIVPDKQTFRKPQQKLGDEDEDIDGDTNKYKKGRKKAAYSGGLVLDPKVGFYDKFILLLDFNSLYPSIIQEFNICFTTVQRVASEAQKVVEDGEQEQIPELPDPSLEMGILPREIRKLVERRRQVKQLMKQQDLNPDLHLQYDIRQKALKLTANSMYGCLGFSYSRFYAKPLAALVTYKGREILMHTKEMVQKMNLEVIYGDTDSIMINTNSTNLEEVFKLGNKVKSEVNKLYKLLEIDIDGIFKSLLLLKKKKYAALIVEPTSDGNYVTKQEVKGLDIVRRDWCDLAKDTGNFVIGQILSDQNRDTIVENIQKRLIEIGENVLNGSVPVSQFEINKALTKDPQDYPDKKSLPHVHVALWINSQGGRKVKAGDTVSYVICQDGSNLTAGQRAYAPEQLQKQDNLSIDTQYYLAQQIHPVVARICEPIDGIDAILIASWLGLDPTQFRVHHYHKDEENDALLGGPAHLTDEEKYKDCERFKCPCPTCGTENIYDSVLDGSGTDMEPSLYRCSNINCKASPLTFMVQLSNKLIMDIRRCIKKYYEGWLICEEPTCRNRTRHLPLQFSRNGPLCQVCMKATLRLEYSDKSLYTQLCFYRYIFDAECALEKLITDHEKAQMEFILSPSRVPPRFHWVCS
The experiment in a line: Calf polymerase alpha inhibition (Replizyme kit). It is filed as biochemical. Particulars: at 10 μM, single point screening. As to the method: Calf polymerase alpha and human polymerase alpha investigations were performed with a kit available from Replizyme Ltd (Heslington, York, UK).

The subject of experiment [1] is 5 Leukemia and 5 Colon Cancer Cell Lines. The experiment in a line: Cell viability by XTT, cell line panel. It is filed as cell-based. Conditions: for Range (Percentage of Control over the same 10 cell lines): lowest to highest of the ten cell lines; for viability at 10 µM: read-out: ARF (Average Response Factor, Average Percentage of Control). The procedure:
Compounds were solubilized at […] in DMSO and were stored at −20° C. Test compounds were initially tested at a single concentration of 10 μM and a subset of test compounds were further tested in selected cell lines using a six concentration dose response curve.
Cell Preparation Cancer cell lines were passaged in T-75 flasks prior to use in the assay in cell culture medium recommended by the ATCC (American Type Culture Collection; Table 6). On the day preceding the assay, the cells were split 1:2 to assure they were in an exponential growth phase at the time of compound treatment. Total cell and viability quantification was performed using a hemocytometer and Trypan Blue dye exclusion. […] The cells were resuspended at the appropriate cell per mL (Table 6) in tissue culture medium and added to the microtitre plates in a volume of 100 μL. Colon cell lines were incubated overnight at 37° C./5% CO2 to allow for cell adherence to the plates.
Plate Format: Each plate contains cell control wells (cells only), drug calorimetric control wells (drug only) as well as experimental wells (drug plus cells). Samples were tested in triplicate at a concentration of 10 μM and five half-logarithmic dilutions.
Cell Viability by XTT: Following incubation at 37° C. in a 5% CO2 incubator for four days, the test plates were stained with the tetrazolium dye XTT (2,3-bis(2-methoxy-4-nitro-5-sulfophenyl)-5-[(phenylamino)carbonyl]-2H-tetrazolium hydroxide). XTT-tetrazolium was metabolized by the mitochondrial enzymes of metabolically active cells to a soluble formazan product. XTT solution was prepared daily as a stock of 1 mg/mL in RPMI1640. Phenazine methosulfate (PMS) solution was prepared at 0.15 mg/mL in phosphate buffered saline (PBS) and stored in the dark at −20° C. XTT/PMS stock was prepared immediately before use by adding 40 μL of PMS per mL of XTT solution. Fifty (50) microlitres of XTT/PMS was added to each well of the plate and the plate was reincubated for 4 hours at 37° C. Plates were sealed with adhesive plate sealers and shaken gently or inverted several times to mix the soluble formazan product and the plate was read spectrophotometrically at 450/650 nm with a Molecular Devices Vmax plate reader. […] An Average Response Factor (ARF) was calculated for each compound by averaging the ten Percentage of Control values for the cell lines. […] Deviations below 100% control indicate activity. The concentration of each tested compound is 10 μM.

The mark [2] stands for this setting: average of the ten Percentage of Control values.

As usually defined, the inhibition is the drop in the measured response relative to a control, in per cent. For `NCCCC[C@H](NC(=O)OCC1c2ccccc2-c2ccccc21)C(=O)Nc1ccc2c(c1)CCC2` [Compound 81, (S)-[5-AMINO-1-(INDAN-5-YLCARBAMOYL)-PENTYL]-CARBAMIC ACID 9H-FLUOREN-9-YLMETHYL ESTER], at Calf polymerase alpha, the inhibition at 10 µM came out at 101%. The “Range (Percentage of Control over the same 10 cell lines)” value in experiment [1] (10 μM) was 61.3 to 116.5%. Further, the viability at 10 µM in experiment [1] (setting [2]) stood at 94.2%. Turning to `NCCCCC[C@H](NC(=O)NCc1ccccc1)C(=O)Nc1ccc(C2CCCCC2)cc1` [Compound 120, (S)-7-AMINO-2-(3-BENZYL-UREIDO)-HEPTANOIC ACID (4-CYCLOHEXYL-PHENYL)-AMIDE], the inhibition at 10 µM at Calf polymerase alpha turned out to be 100%. Moreover, the “Range (Percentage of Control over the same 10 cell lines)” value in experiment [1] (10 μM) was 40.4 to 117.1%. Also, the viability at 10 µM in experiment [1] (setting [2]) came to 88.4%. One may read the % Inhibition as the change of the read-out against control, counted positive when it falls. As to `Cc1ccc(NC(=O)[C@H](CCCCN)NS(=O)(=O)c2ccc(-c3ccccc3)cc2)cc1` [Compound 70, (S)-6-AMINO-2-(BIPHENYL-4-SULFONYLAMINO)-HEXANOIC ACID P-TOLYLAMIDE], the “% Inhibition” value at Calf polymerase alpha stood at 50%. Further, in experiment [1] (10 μM, average of the ten Percentage of Control values), the “ARF (Average Response Factor, Average Percentage of Control)” value is recorded as 94.5%. For the same molecule, in experiment [1] (10 μM), the “Range (Percentage of Control over the same 10 cell lines)” value was in the range of 61.1 to 115.5%. With `NCc1ccc(NC(=O)[C@@H](NC(=O)Nc2ccc(OCc3ccccc3)cc2)c2ccccc2)cc1` [Compound 305, (S)—N-(4-AMINOMETHYL-PHENYL)-2-[3-(4-BENZYLOXY-PHENYL)-UREIDO]-2-PHENYL-ACETAMIDE], the inhibition at 10 µM on Calf polymerase alpha came to 104%. Further, the “Range (Percentage of Control over the same 10 cell lines)” value in experiment [1] (10 μM) is 30.9 to 105.9%. The viability at 10 µM in experiment [1] (setting [2]) is 79.5%. With `Cc1ccc(NC(=O)[C@H](CCCCNC(=O)CN)NC(=O)OCC2c3ccccc3-c3ccccc32)cc1` [Compound 176, (S)-[5-(2-AMINO-ACETYLAMINO)-1-P-TOLYLCARBAMOYL-PENTYL]-CARBAMIC ACID 9H-FLUOREN-9-YLMETHYL ESTER], the “% Inhibition” value at Calf polymerase alpha turned out to be 68%. Consider `NCCCCCCNC(=O)[C@H](Cc1ccccc1)NC(=O)Nc1ccc(OCc2ccccc2)cc1` [Compound 263, (S)—N-(6-AMINO-HEXYL)-2-[3-(4-BENZYLOXY-PHENYL)-UREIDO]-3-PHENYL-PROPIONAMIDE], for which the inhibition at 10 µM against Calf polymerase alpha was found to be 31%. Regarding `Cc1ccc(NC(=O)[C@H](CCCCN)NC(=O)Nc2cccc(-c3ccccc3)c2)cc1` [Compound 127, (S)-6-AMINO-2-(3-BIPHENYL-3-YL-UREIDO)-HEXANOIC ACID P-TOLYLAMIDE], the “% Inhibition” value at Calf polymerase alpha is given as 45%. `Cc1ccc(NC(=O)[C@@H](N)CCCCN)cc1` [Compound 114, (S)-2,6-DIAMINO-HEXANOIC ACID P-TOLYLAMIDE]: at Calf polymerase alpha, the “% Inhibition” value was 17%. Consider `O=C(CC1CNCCN1C(=O)Nc1ccc(OCc2ccccc2)cc1)Nc1ccc(C2CCCCC2)cc1` (stereo not shown) [Compound 163, 2-[(4-CYCLOHEXYL-PHENYLCARBAMOYL)-METHYL]-PIPERAZINE-1-CARBOXYLIC ACID (4-BENZYLOXY-PHENYL)-AMIDE], for which, at Calf polymerase alpha, the inhibition at 10 µM was found to be 102%.

As to `Cc1ccc(NC(=O)[C@H](Cc2ccc(CN)cc2)NC(=O)Nc2ccc(OCc3ccccc3)cc2)cc1` [Compound 146, (S)-3-(4-AMINOMETHYL-PHENYL)-2-[3-(4-BENZYLOXY-PHENYL)-UREIDO]-N-P-TOLYL-PROPIONAMIDE], the “% Inhibition” value on Calf polymerase alpha came to 102%. Consider `CNCC(=O)NCCC[C@H](NC(=O)OCC1c2ccccc2-c2ccccc21)C(=O)Nc1ccc(C)cc1` [Compound 223, (S)-[4-(2-METHYLAMINO-ACETYLAMINO)-1-P-TOLYLCARBAMOYL-BUTYL]-CARBAMIC ACID 9H-FLUOREN-9-YLMETHYL ESTER], for which the “% Inhibition” value at Calf polymerase alpha is given as 22%. For `NCCCCCCNC(=O)[C@@H](NC(=O)OCC1c2ccccc2-c2ccccc21)c1ccccc1` [Compound 313, (S)-[(6-AMINO-HEXYLCARBAMOYL)-PHENYL-METHYL]-CARBAMIC ACID 9H-FLUOREN-9-YLMETHYL ESTER], the inhibition at 10 µM at Calf polymerase alpha is 43%.

Regarding `Cc1ccc(NC(=O)[C@H](CCCCN)NC(=O)Nc2ccc(OCc3cccc(F)c3)cc2)cc1` [Compound 249, (S)-6-AMINO-2-{3-[4-(3-FLUORO-BENZYLOXY)-PHENYL]-UREIDO}-HEXANOIC ACID P-TOLYLAMIDE], the “% Inhibition” value on Calf polymerase alpha stood at 67%. As for `Cc1ccc(NC(=O)[C@H](CCCCN)NC(=O)Nc2ccc(OCc3ccc(F)cc3)cc2)cc1` [Compound 250, (S)-6-AMINO-2-{3-[4-(4-FLUORO-BENZYLOXY)-PHENYL]-UREIDO}-HEXANOIC ACID P-TOLYLAMIDE], at Calf polymerase alpha, the “% Inhibition” value is recorded as 57%. Still for that read-out and setting: for `Cc1ccc(NC(=O)CN(CCCCN)C(=O)Nc2ccc(OCc3ccccc3)cc2)cc1` [Compound 278, 2-[1-(4-AMINO-BUTYL)-3-(4-BENZYLOXY-PHENYL)-UREIDO]-N-P-TOLYL-ACETAMIDE] the value was 101%. With `Cc1cc2cc(NC(=O)[C@H](CCNC(=O)CN)NC(=O)Nc3ccc4c(c3)Cc3ccccc3-4)ccc2[nH]1` [Compound 240, (S)-4-(2-AMINO-ACETYLAMINO)-2-[3-(9H-FLUOREN-2-YL)-UREIDO]-N-(2-METHYL-1H-INDOL-5-YL)-BUTYRAMIDE], on Calf polymerase alpha, the inhibition at 10 µM came to 63%. Turning to `Cc1ccc(NC(=O)[C@H](CCCCN)NC(=O)Nc2ccc(CCc3ccccc3)cc2)cc1` [Compound 243, (S)-6-AMINO-2-[3-(4-PHENETHYL-PHENYL)-UREIDO]-HEXANOIC ACID P-TOLYLAMIDE], at Calf polymerase alpha, the “% Inhibition” value is recorded as 0%. With `Cc1ccc(NC(=O)CC2CN(C(=O)[C@H](C)N)CCN2C(=O)OCC2c3ccccc3-c3ccccc32)cc1` (stereo partly drawn) [Compound 184, 4-((S)-2-AMINO-PROPIONYL)-2-(P-TOLYLCARBAMOYL-METHYL)-PIPERAZINE-1-CARBOXYLIC ACID 9H-FLUOREN-9-YLMETHYL ESTER], the “% Inhibition” value on Calf polymerase alpha worked out at 38%.

With `Cc1ccc(NC(=O)[C@H](CCCCN)NC(=O)NC2c3ccccc3-c3ccccc32)cc1` [Compound 126, (S)-6-AMINO-2-[3-(9H-FLUOREN-9-YL)-UREIDO]-HEXANOIC ACID P-TOLYLAMIDE], the “% Inhibition” value on Calf polymerase alpha stood at 98%. On to `Cc1ccc(NC(=O)[C@H](CCCC[N+](C)(C)C)NC(=O)OCC2c3ccccc3-c3ccccc32)cc1` [Compound 110], for which the “% Inhibition” value on Calf polymerase alpha worked out at 62.5%.
